Reference: patent US20100056596A1, “RESISTANCE-REPELLENT RETROVIRAL PROTEASE INHIBITORS” (Sequoia Pharmaceuticals, priority 2004, published 2010)
Where two headings read alike, the source gives them in different places.

Legend:
HIV-1 protease Mutant 9 = HIV-1 protease Mutant 9 (Human immunodeficiency virus type 1, UniProt P04585); assay: Ki against HIV-1 protease Mutant 9; assay type: biochemical
HIV-1 isolates, Mutant 8 = assay: In vitro drug sensitivity of HIV-1 laboratory isolates, Mutant 8; assay type: cell-based
Procedure: (§1) In Vitro Drug Sensitivity of HIV-1 Laboratory Isolates to PIs
(§2) The sensitivities of HIV-1 isolates against compounds of the invention were determined as previously described with minor modifications (Shiraska et al., Proc. Natl. Acad. Sci. USA, 92, 2398-2402 (1995)).

wild type HIV-1 protease = molecular target: T1, wild type HIV-1 protease (Human immunodeficiency virus type 1 group M subtype B, UniProt P04585); assay: Ki against wild type (WT) HIV-1 protease; assay type: biochemical
T1 construct: over 45 of the 99 amino acids of the HIV protease monomer

HIV-1 protease Mutant 8 = HIV-1 protease Mutant 8 (Human immunodeficiency virus type 1, UniProt P04585); assay: Ki against HIV-1 protease Mutant 8; assay type: biochemical
HIV-1 isolates, Mutant 9 = assay: In vitro drug sensitivity of HIV-1 laboratory isolates, Mutant 9; assay type: cell-based
Procedure: as §1, §2

HIV-1 isolates, WT = assay: In vitro drug sensitivity of HIV-1 laboratory isolates, WT; assay type: cell-based
Procedure: as §1, §2

[1] = Human immunodeficiency virus 1, read-out: IC50 Mutant 8
[2] = Human immunodeficiency virus 1, read-out: IC50 Mutant 9
[3] = Human immunodeficiency virus 1, HIV-1 isolate WT
[4] = Mutant 8, read-out: IC50 Mutant 8
[5] = Mutant 9, read-out: IC50 Mutant 9

| SMILES | Ki (HIV-1 protease Mutant 9; Mutant 9) [nM] | IC50 (HIV-1 isolates, Mutant 8; [1]) [nM] | Ki (wild type HIV-1 protease; WT) [nM] | Ki (HIV-1 protease Mutant 8; Mutant 8) [nM] | IC50 (HIV-1 isolates, Mutant 9; [2]) [nM] | IC50 (HIV-1 isolates, WT; Human immunodeficiency virus 1) [nM] | Ki (HIV-1 protease Mutant 9; HIV-1 protease Mutant 9) [nM] | Ki (wild type HIV-1 protease; wild type HIV-1 protease) [nM] | Ki (HIV-1 protease Mutant 8; HIV-1 protease Mutant 8) [nM] | IC50 (HIV-1 isolates, WT; [3]) [nM] | IC50 (HIV-1 isolates, Mutant 8; [4]) [nM] | IC50 (HIV-1 isolates, Mutant 9; [5]) [nM] | IC50 (HIV-1 isolates, WT; WT) [nM] |
| --- | --- | --- | --- | --- | --- | --- | --- | --- | --- | --- | --- | --- | --- |
| CC(C)CN(CC(O)C(Cc1ccccc1)NC(=O)OC1COC2OCCC12)S(=O)(=O)c1ccc2occ(CNC(=O)C[S+]([O-])Cc3ccccc3)c2c1 (centres unmarked) [Compound 120] | 0.22 | 31 | < 0.1 | < 0.3 | 150 | 20 |  |  |  |  |  |  |  |
| CCOC(=O)N(CCOC)Cc1noc2ccc(S(=O)(=O)N(CC(C)C)CC(O)C(Cc3ccccc3)NC(=O)OC3COC4OCCC34)cc12 (centres unmarked) [Compound 225] |  | 27 |  |  | 80 |  | 0.44 | < 0.1 | < 0.3 | 3.6 |  |  |  |
| CC(C)CN(C[C@@H](O)[C@H](Cc1ccccc1)NC(=O)OC1COC2OCCC12)S(=O)(=O)c1ccc2occ(CNCCc3ccccn3)c2c1 (some centres unmarked) [Compound 117] | < 0.1 |  | < 0.1 | < 0.3 |  |  |  |  |  |  | 27 | 49 | 7 |
| CC(C)CN(CC(O)C(Cc1ccccc1)NC(=O)OC1COC2OCCC12)S(=O)(=O)c1ccc2onc(COCC(F)(F)F)c2c1 (centres unmarked) [Compound 246] |  | 6.8 |  |  | 105 |  | 1.1 | < 0.1 | < 0.3 | 2.7 |  |  |  |
| CC(C)CN(CC(O)C(Cc1ccccc1)NC(=O)OC1COC2OCCC12)S(=O)(=O)c1ccc2onc(CNS(=O)(=O)C(C)C)c2c1 (centres unmarked) [Compound 204] |  | 31 |  |  | 83 |  | 0.14 | < 0.1 | < 0.3 | 6.5 |  |  |  |
| CC(C)CN(CC(O)C(Cc1ccccc1)NC(=O)OC1COC2OCCC12)S(=O)(=O)c1ccc2occ(CNC(=O)c3ccccc3)c2c1 (centres unmarked) [Compound 114, (3-{[3-(Benzoylamino-methyl)-benzofuran-5-sulfonyl]-isobutyl-amino}-1-benzyl-2-hydroxy-propyl)-carbamic acid hexahydro-furo[2,3-b]furan-3-yl ester] | < 0.1 | 23 | 0.1 | < 0.3 | 30 | 4 |  |  |  |  |  |  |  |
| CC(C)CN(CC(O)C(Cc1ccccc1)NC(=O)OC1COC2OCCC12)S(=O)(=O)c1ccc2occ(CNS(=O)(=O)C(C)C)c2c1 (centres unmarked) [Compound 115] | 0.27 | 18 | < 0.1 | < 0.3 | 64 | 6 |  |  |  |  |  |  |  |
| CC(C)CN(CC(O)C(Cc1ccccc1)NC(=O)OC1COC2OCCC12)S(=O)(=O)c1ccc2onc(CNC(=O)C(F)(F)F)c2c1 (centres unmarked) [Compound 234] |  | 23 |  |  | 85 |  | 0.36 | < 0.1 | < 0.3 | 16 |  |  |  |
| Cc1coc2ccc(S(=O)(=O)N(CC(C)C)CC(O)C(Cc3ccccc3)NC(=O)OC3COC4OCCC34)cc12 (centres unmarked) [Compound 103] | 0.48 | 35 | < 0.1 | < 0.3 | 300 | 3.7 |  |  |  |  |  |  |  |
| CCOC(=O)N(CCOC)Cc1coc2ccc(S(=O)(=O)N(CC(C)C)C[C@@H](O)[C@H](Cc3ccccc3)NC(=O)OC3COC4OCCC34)cc12 (some centres unmarked) [Compound 126] | 0.92 |  | < 0.1 | < 0.3 |  |  |  |  |  |  | 60 | 250 | 4 |
| Cc1n[nH]c2ccc(S(=O)(=O)N(CC(C)C)CC(O)C(Cc3ccccc3)NC(=O)OC3COC4OCCC34)cc12 (centres unmarked) [Compound 301, {1-Benzyl-2-hydroxy-3-[isobutyl-(3-methyl-1H-indazole-5-sulfonyl)-amino]-propyl}-carbamic acid hexahydro-furo[2,3-b]furan-3-yl ester] | 0.23 | 70 | < 0.1 | < 0.3 | 80 | 8 |  |  |  |  |  |  |  |
| CC(C)CN(CC(O)C(Cc1ccccc1)NC(=O)OC1COC2OCCC12)S(=O)(=O)c1ccc2onc(CS(C)(=O)=O)c2c1 (centres unmarked) [Compound 243] |  | 24 |  |  | 120 |  | 0.96 | < 0.1 | < 0.3 | 8.2 |  |  |  |
| CC(C)CN(C[C@@H](O)[C@H](Cc1ccccc1)NC(=O)OC1COC2OCCC12)S(=O)(=O)c1ccc2occ(CNC(=O)c3ccco3)c2c1 (some centres unmarked) [Compound 125] | < 0.1 |  | < 0.1 | < 0.3 |  |  |  |  |  |  | 9 | 31 | 5 |
| CC(C)CN(C[C@@H](O)[C@H](Cc1ccccc1)NC(=O)OC1COC2OCCC12)S(=O)(=O)c1ccc2oc(CBr)cc2c1 (some centres unmarked) [Compound 104] | 0.41 |  | < 0.1 | < 0.3 |  |  |  |  |  |  | 41 | 230 | 8 |
| CC(C)CN(CC(O)C(Cc1ccccc1)NC(=O)OC1COC2OCCC12)S(=O)(=O)c1ccc2onc(CNCCc3ccccn3)c2c1 (centres unmarked) [Compound 224] |  | 30 |  |  | 100 |  | 0.22 | < 0.1 | < 0.3 | 15 |  |  |  |
| COCc1coc2ccc(S(=O)(=O)N(CC(C)C)CC(O)C(Cc3ccccc3)NC(=O)OC3COC4OCCC34)cc12 (centres unmarked) [Compound 123] | 0.22 | 19 | 0.13 | < 0.3 | 240 | 4 |  |  |  |  |  |  |  |
| CC(C)CN(CC(O)C(Cc1ccccc1)NC(=O)OC1COC2OCCC12)S(=O)(=O)c1ccc2occ(CO)c2c1 (centres unmarked) [Compound 124] | 0.26 | 12 | < 0.1 | < 0.3 | 130 | 8.7 |  |  |  |  |  |  |  |
| CC(C)CN(CC(O)C(Cc1ccccc1)NC(=O)OC1COC2OCCC12)S(=O)(=O)c1ccc2onc(CNCc3ccc4occc4c3)c2c1 (centres unmarked) [Compound 248] |  | 24 |  |  | 54 |  | 0.33 | < 0.1 | < 0.3 | 7.9 |  |  |  |
| COCc1noc2ccc(S(=O)(=O)N(CC(C)C)CC(O)C(Cc3ccccc3)NC(=O)OC3COC4OCCC34)cc12 (centres unmarked) [Compound 244] |  | 40 |  |  | 305 |  | 0.49 | < 0.1 | < 0.3 | 4.1 |  |  |  |
| Cc1nc(CNCc2noc3ccc(S(=O)(=O)N(CC(C)C)CC(O)C(Cc4ccccc4)NC(=O)OC4COC5OCCC45)cc23)cs1 (centres unmarked) [Compound 242] |  | 15 |  |  | 27 |  | 0.22 | < 0.1 | < 0.3 | 7 |  |  |  |
| CC(C)CN(CC(O)C(Cc1ccccc1)NC(=O)OC1COC2OCCC12)S(=O)(=O)c1ccc2onc(CNC(=O)c3ccccc3)c2c1 (centres unmarked) [Compound 221] |  | 14 |  |  | 16 |  | < 0.1 | < 0.1 | < 0.3 | 7 |  |  |  |
| CC(C)CN(CC(O)C(Cc1ccccc1)NC(=O)OC1COC2OCCC12)S(=O)(=O)c1ccc2onc(CNCC(F)(F)F)c2c1 (centres unmarked) [Compound 229] |  | 3.1 |  |  | 21 |  | 0.46 | < 0.1 | < 0.3 | 2.2 |  |  |  |
| CCCCNc1n[nH]c2ccc(S(=O)(=O)N(CC(C)C)CC(O)C(Cc3ccccc3)NC(=O)OC3COC4OCCC34)cc12 (centres unmarked) [Compound 308] | 1.8 | 30 | < 0.1 | < 0.3 | 310 | 8 |  |  |  |  |  |  |  |
| CC(C)CN(CC(O)C(Cc1ccccc1)NC(=O)OC1COC2OCCC12)S(=O)(=O)c1ccc2onc(CNC(=O)C(F)(F)C(F)(F)F)c2c1 (centres unmarked) [Compound 245] |  | 30 |  |  | 190 |  | 0.63 | < 0.1 | < 0.3 | 8.4 |  |  |  |
| CC(=O)NCc1noc2ccc(S(=O)(=O)N(CC(C)C)CC(O)C(Cc3ccccc3)NC(=O)OC3COC4OCCC34)cc12 (centres unmarked) [Compound 214] |  | 28 |  |  | 31 |  | < 0.1 | < 0.1 | < 0.3 | 42 |  |  |  |
| CC(C)CN(CC(O)C(Cc1ccccc1)NC(=O)OC1COC2OCCC12)S(=O)(=O)c1ccc2onc(CNC(=O)OC(C)C)c2c1 (centres unmarked) [Compound 212] |  | 30 |  |  | > 400 |  | 0.34 | < 0.1 | < 0.3 | 5 |  |  |  |
| CC(C)CN(CC(O)C(Cc1ccccc1)NC(=O)OC1COC2OCCC12)S(=O)(=O)c1ccc2onc(COC(=O)C(C)C)c2c1 (centres unmarked) [Compound 215] |  | 15 |  |  | 55 |  | 0.75 | < 0.1 | < 0.3 | 11 |  |  |  |
| CC(C)CN(C[C@@H](O)[C@H](Cc1ccccc1)NC(=O)OC1COC2OCCC12)S(=O)(=O)c1ccc2occ(CNC(=O)c3cccnc3)c2c1 (some centres unmarked) [Compound 118] | 0.12 |  | < 0.1 | < 0.3 |  |  |  |  |  |  | 35 | 39 | 30 |
| CC(C)CN(CC(O)C(Cc1ccccc1)NC(=O)OC1COC2OCCC12)S(=O)(=O)c1ccc2onc(Cn3ccnc3)c2c1 (centres unmarked) [Compound 216] |  | 32 |  |  | 250 |  | 1.7 | < 0.1 | < 0.3 | 20 |  |  |  |
| CC(C)CN(C[C@@H](O)[C@H](Cc1ccccc1)NC(=O)OC1CO[C@H]2OCC[C@@H]12)S(=O)(=O)c1ccc2c(c1)C(C)CO2 (some centres unmarked) | 7.5 | 56 | < 0.1 |  | 900 | 1.5 |  |  |  |  |  |  |  |
